According to PubChem BioAssay AID328 (DTP/NCI, 2004):
Values joined by “and” are separate entries in the source; they are usually repeats but may differ in a detail not shown here. Identical values can stand only once. Toxic doses and inconclusive results are not listed.

Tested on: BDF1 mice, P388 leukemia ip, median survival T/C
Test: NCI In Vivo Anticancer Drug Screen. Data for tumor model P388 Leukemia (intraperitoneal) in B6D2F1 (BDF1) mice
Settings: endpoint: median survival time, higher = longer survival
Outline: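 Vehicle-dosed animals serve as the reference; survival of compound-dosed, tumour-implanted mice is divided by it.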

[1] = dose: 50.0 mg/kg/injection, schedule: Q01DX009 (ip), vehicle: saline with Tween-80
[2] = dose: 100.0 mg/kg/injection, schedule: Q01DX009 (ip), vehicle: saline with Tween-80
[3] = dose: 200.0 mg/kg/injection, schedule: Q01DX009 (ip), vehicle: saline with Tween-80
[4] = dose: 200.0 mg/kg/injection, schedule: Q04DX003 (ip), vehicle: saline with Tween-80
[5] = dose: 400.0 mg/kg/injection, schedule: Q04DX003 (ip), vehicle: saline with Tween-80
[6] = dose: 25.0 mg/kg/injection, schedule: Q01DX009 (ip), vehicle: saline
[7] = dose: 50.0 mg/kg/injection, schedule: Q01DX009 (ip), vehicle: saline
[8] = dose: 50.0 mg/kg/injection, schedule: Q04DX003 (ip), vehicle: saline with Tween-80
[9] = dose: 100.0 mg/kg/injection, schedule: Q04DX003 (ip), vehicle: saline with Tween-80
[10] = dose: 3.12 mg/kg/injection, schedule: Q01DX009 (ip), vehicle: saline
[11] = dose: 6.25 mg/kg/injection, schedule: Q01DX009 (ip), vehicle: saline
[12] = dose: 12.5 mg/kg/injection, schedule: Q01DX009 (ip), vehicle: saline

`CC(=O)[C@H]1CC[C@H]2[C@@H]3C[C@H](F)C4=CC(=O)CC[C@]4(C)[C@H]3C(=O)C[C@]12C` was tested, and the T/C [1] was 112 % of control, the T/C [2] was 104 % of control and the T/C [3] was 116 % of control. The T/C [4] was 100 % of control and the T/C [5] was 111 % of control.

In the case of `CC(=O)Nc1ccc(N=Nc2c(C)nn(C(=N)N)c2C)cc1`, the T/C [6] is reported as 97 % of control and the T/C [7] is reported as 97 % of control.

In the case of `CNC(=N)c1ccc(NC(=N)c2ccc(NC(=N)c3ccc(NC(=O)Nc4ccc(C#N)cc4)cc3)cc2)cc1`, the T/C (dose: 3.0 mg/kg/injection, schedule: Q04DX003 (ip), vehicle: saline with Tween-80) is reported as 123 % of control, the T/C (dose: 14.0 mg/kg/injection, schedule: Q04DX003 (ip), vehicle: saline with Tween-80) is reported as 163 % of control and the T/C (dose: 16.0 mg/kg/injection, schedule: Q01DX009 (ip), vehicle: saline with Tween-80) is reported as 157 % of control. For the same compound, the T/C (dose: 24.0 mg/kg/injection, schedule: Q01DX009 (ip), vehicle: saline with Tween-80) was 173 % of control and 200 % of control, the T/C (dose: 33.0 mg/kg/injection, schedule: Q04DX003 (ip), vehicle: saline with Tween-80) was 250 % of control and 168 % of control and 200 % of control and the T/C (dose: 37.0 mg/kg/injection, schedule: Q01DX009 (ip), vehicle: saline with Tween-80) was 230 % of control. For the same compound, the T/C (dose: 37.5 mg/kg/injection, schedule: Q01DX009 (ip), vehicle: saline with Tween-80) was 153 % of control, the T/C [1] was 103 % of control and the T/C [8] was 250 % of control and 186 % of control. The T/C (dose: 75.0 mg/kg/injection, schedule: Q04DX003 (ip), vehicle: saline with Tween-80) was 250 % of control and 172 % of control and the T/C (dose: 112.0 mg/kg/injection, schedule: Q04DX003 (ip), vehicle: saline with Tween-80) was 216 % of control.

With `Oc1cc(Cl)c(Cl)c(Cl)c1` the T/C (dose: 100.0 mg/kg/injection, schedule: Q04DX002 (ip), vehicle: saline with Tween-80) was 102 % of control, the T/C (dose: 200.0 mg/kg/injection, schedule: Q04DX002 (ip), vehicle: saline with Tween-80) was 98 % of control and the T/C (dose: 400.0 mg/kg/injection, schedule: Q04DX002 (ip), vehicle: saline with Tween-80) was 97 % of control.

With `COC(=O)C1CC(=O)N(C)c2sc(C)c(C)c2C1=O` (stereo not drawn) the T/C (dose: 25.0 mg/kg/injection, schedule: Q04DX003 (ip), vehicle: saline with Tween-80) was 107 % of control, the T/C [1] was 111 % of control and the T/C [8] was 92 % of control and 94 % of control. For the same compound, the T/C [2] was 111 % of control, the T/C [9] was 92 % of control and the T/C [3] was 92 % of control. For the same compound, the T/C [4] was 95 % of control and 104 % of control, the T/C [5] was 100 % of control and 107 % of control and the T/C (dose: 500.0 mg/kg/injection, schedule: Q04DX003 (ip), vehicle: saline with Tween-80) was 100 % of control.

`Cn1cc(S(C)=O)c(=O)c2ccccc21` (stereo not drawn) was tested, and the T/C [7] was 99 % of control, the T/C (dose: 100.0 mg/kg/injection, schedule: Q01DX009 (ip), vehicle: saline) was 99 % of control and the T/C (dose: 200.0 mg/kg/injection, schedule: Q01DX009 (ip), vehicle: saline) was 111 % of control.

In the case of `N#Cc1ccc(NC(=O)N(CCCl)N=O)cc1`, the T/C (dose: 0.29 mg/kg/injection, schedule: Q01DX009 (ip), vehicle: saline) is reported as 122 % of control, the T/C (dose: 0.37 mg/kg/injection, schedule: Q01DX009 (ip), vehicle: Klucel (hydroxypropylcellulose) (HPC)) is reported as 116 % of control and the T/C (dose: 0.44 mg/kg/injection, schedule: Q01DX009 (ip), vehicle: saline) is reported as 122 % of control. The T/C (dose: 0.5 mg/kg/injection, schedule: Q04DX003 (ip), vehicle: Klucel (hydroxypropylcellulose) (HPC)) was 103 % of control, the T/C (dose: 0.8 mg/kg/injection, schedule: Q04DX003 (ip), vehicle: Klucel (hydroxypropylcellulose) (HPC)) was 107 % of control and the T/C (dose: 1.0 mg/kg/injection, schedule: Q01DX009 (ip), vehicle: saline) was 162 % of control. For the same compound, the T/C (dose: 1.56 mg/kg/injection, schedule: Q01DX009 (ip), vehicle: saline) was 153 % of control and 202 % of control, the T/C (dose: 2.0 mg/kg/injection, schedule: Q04DX003 (ip), vehicle: Klucel (hydroxypropylcellulose) (HPC)) was 183 % of control and the T/C (dose: 3.0 mg/kg/injection, schedule: Q01DX009 (ip), vehicle: Klucel (hydroxypropylcellulose) (HPC)) was 187 % of control. For the same compound, the T/C (dose: 3.0 mg/kg/injection, schedule: Q04DX003 (ip), vehicle: Klucel (hydroxypropylcellulose) (HPC)) was 170 % of control, the T/C (dose: 3.12 mg/kg/injection, schedule: Q01DX009 (ip), vehicle: Klucel (hydroxypropylcellulose) (HPC)) was 175 % of control and the T/C [10] was 194 % of control. For the same compound, the T/C (dose: 5.0 mg/kg/injection, schedule: Q04DX003 (ip), vehicle: Klucel (hydroxypropylcellulose) (HPC)) was 191 % of control and 200 % of control and 215 % of control, the T/C (dose: 6.25 mg/kg/injection, schedule: Q01DX009 (ip), vehicle: Klucel (hydroxypropylcellulose) (HPC)) was 204 % of control and the T/C [11] was 219 % of control. The T/C (dose: 8.0 mg/kg/injection, schedule: Q04DX003 (ip), vehicle: Klucel (hydroxypropylcellulose) (HPC)) was 185 % of control and 210 % of control, the T/C (dose: 12.0 mg/kg/injection, schedule: Q04DX003 (ip), vehicle: Klucel (hydroxypropylcellulose) (HPC)) was 245 % of control and 220 % of control and the T/C (dose: 12.5 mg/kg/injection, schedule: Q01DX009 (ip), vehicle: Klucel (hydroxypropylcellulose) (HPC)) was 100 % of control. The T/C [12] was 102 % of control, the T/C (dose: 12.5 mg/kg/injection, schedule: Q04DX003 (ip), vehicle: Klucel (hydroxypropylcellulose) (HPC)) was 222 % of control and the T/C (dose: 18.0 mg/kg/injection, schedule: Q04DX003 (ip), vehicle: Klucel (hydroxypropylcellulose) (HPC)) was 265 % of control and 110 % of control. For the same compound, the T/C (dose: 25.0 mg/kg/injection, schedule: Q04DX003 (ip), vehicle: Klucel (hydroxypropylcellulose) (HPC)) was 109 % of control.

With `OC(c1ccccc1)(C1CCNCC1)C1CC1` (stereo not drawn) the T/C (dose: 25.0 mg/kg/injection, schedule: Q01DX001 (ip), vehicle: saline) was 107 % of control, the T/C (dose: 50.0 mg/kg/injection, schedule: Q01DX001 (ip), vehicle: saline) was 107 % of control and the T/C (dose: 100.0 mg/kg/injection, schedule: Q01DX001 (ip), vehicle: saline) was 118 % of control.

`CCOC(=O)c1cnn(C)c1N` was tested, and the T/C (dose: 25.0 mg/kg/injection, schedule: Q01DX009 (ip), vehicle: saline with Tween-80) was 93 % of control, the T/C (dose: 25.0 mg/kg/injection, schedule: Q04DX003 (ip), vehicle: water) was 109 % of control and the T/C [1] was 102 % of control. The T/C (dose: 50.0 mg/kg/injection, schedule: Q04DX003 (ip), vehicle: water) was 99 % of control, the T/C [2] was 100 % of control and the T/C (dose: 100.0 mg/kg/injection, schedule: Q04DX003 (ip), vehicle: water) was 114 % of control. For the same compound, the T/C (dose: 200.0 mg/kg/injection, schedule: Q04DX003 (ip), vehicle: water) was 91 % of control and the T/C (dose: 400.0 mg/kg/injection, schedule: Q04DX003 (ip), vehicle: water) was 116 % of control.

In the case of `O=C(O)c1ccccc1C(=O)O` (tested in a mixture with another compound), the T/C (dose: 50.0 mg/kg/injection, schedule: Q01DX009 (ip), vehicle: Klucel (hydroxypropylcellulose) (HPC)) is reported as 89 % of control, the T/C (dose: 100.0 mg/kg/injection, schedule: Q01DX009 (ip), vehicle: Klucel (hydroxypropylcellulose) (HPC)) is reported as 91 % of control and the T/C (dose: 200.0 mg/kg/injection, schedule: Q01DX009 (ip), vehicle: Klucel (hydroxypropylcellulose) (HPC)) is reported as 96 % of control.

In the case of `CCCC(=O)OCc1ccc(Cl)cc1Cl`, the T/C [9] is reported as 109 % of control and the T/C [5] is reported as 113 % of control.

With `Nc1nc2c(ncn2C2OC(CO)C(O)C2N)c(=O)[nH]1` (stereo not drawn) the T/C [10] was 111 % of control, the T/C [11] was 111 % of control and 124 % of control and the T/C [12] was 102 % of control and 117 % of control. The T/C [6] was 93 % of control and 111 % of control, the T/C [7] was 108 % of control and the T/C [9] was 109 % of control. For the same compound, the T/C [5] was 100 % of control.
